Experimental data from patent publication US6503941B2, “Ferulic ester derivative, 3,9-diferulylcoumestrol and cosmetic product containing same” (Hanbul Cosmetics Co., Ltd., priority 2000, dated 2003).

How the values were obtained:
tyrosinase = assay: Tyrosinase inhibition effect (whitening activity); type: biochemical; details: 0.1%(wt/wt) sample solution; tyrosine 0.2 mg/ml, tyrosinase 680 units/ml, 37° C.
Method: And whitening activity and anti-oxidant activity were measured by determining tyrosinase inhibition effect and using NBT method. 0.1% vitamin C, 0.1% vitamin E, kojic acid and albutin were used as sample. […] A solution for blank test was tyrosine 1 ml+phosphoric acid buffer 1 ml+distilled water 1 ml. The procedure of the test is as follows. [table] 1) A,B and C are mixed and maintained at 37° C. for 30 min. 2) D is added and maintained for just 30 min. 3) After 10 min±10 sec, they are took out and the reaction ends in a refrigerating condition by ice. 4) when comparing the absorbance the comparative samples, the absorbencies of comparative group are tested and then those of blank test group are test(at […]). Tyrosinase activity inhibition effect(%) us calculated in the following way and the result is shown as Table 2. Tyrosinase activity inhibition effect (%): [1−(E−B/C)]×100 (B: blank test group, C: control group, E: test group)

[1] = Anti-oxidant effect, activated oxygen removal by NBT method; type: biochemical; details: 0.1%(wt/wt) sample solution; NBT absorbance at 560 nm; suppression ratio
Method: And whitening activity and anti-oxidant activity were measured by determining tyrosinase inhibition effect and using NBT method. 0.1% vitamin C, 0.1% vitamin E, kojic acid and albutin were used as sample. To determine anti-oxidant effect, activated oxygen produced from xanthine and xanthine oxidase were measured using NBT method and activated oxygen removal effect of the tested materials was determined. Activated oxygen was produced by xanthine and xanthine oxidase. The activated oxygen was determined by measuring the blue color produced from the reaction of the activated oxygen and Nitroblue tetrasolium (NBT) at 560 nm of wavelength. 6) Xanthines oxidase solution: xanthine oxidase(Boehringer) was diluted about 100 times so that its blank test absorbance within the range of 0.2-0.23. In other word, the purified water was diluted so that the absorbance change be A560=0.3/20 min. (1)1,2,3,4 and 5 are introduced into vial bottle and 0.1 ml of sample solution is added, which are maintained at 5° C. for 10 min. (2) It is added by 6 and stirred immediately, followed by 20 min of culture at 25° C. (3) After 7 is added, the reaction is stopped. Then, absorbance (St) at 560 nm is measured. (4) Blank test is carried out in the same way except distilled water is used instead of sample solution and absorbance (Bt) is measured. 5) Blank test for sample is carried out in the same way except distilled water is used instead of 6 and absorbance (Bo) is measured. The effect is calculated in the following way. Suppression ratio (%)=[1−(St−So)/(Bt−Bo)×100

[2] = tested on: collagen in the skin of hairless mice; assay: Collagen formation effect, skin tissue test for collagen proliferation promoting effect; type: in vivo; details: 0.1%(wt/wt) 1,3-BG solution applied to body of hairless mice
Method: To confirm the collagen formation effect of the synthesized 3,9-diferulylcoumestrol, 10 female hairless mice of 8week age were prepared. From the 2 mice, skin was taken out and standard dye samples were prepared using the side and middle part of the skin for investigation the collagen proliferation level. The other 8 mice were divided into two for the applied group and the control group.
In the same test condition, the whole body except head and belly of the applied group and the control group and were applied by 3,9-diferulycoumestrol 0.1%(wt/wt) 1,3-BG solution and 1,3-BG solution, for 15 days and 30 days.
From the applied group and the control group respectively, 2 mice were selected and their skins were cut out, then dyed samples were obtained from the side and middle part of the skin. After 30 days, skin dyed samples were obtained in the same way. For each of the obtained 10 dyed skin samples of the control group and the applied group, collagen proliferation promoting effect were compared on the basis of the skin condition of &week age. […] From the result, it was experimentally confirmed that 3,9diferulylcoumestrol is excellent in collagen synthesis and collagen proliferation promotion(FIG. 2)

[3] = tested on: human-derived fibroblast(ATCC, Hs68); assay: Cell toxicity and activity, MTT; type: cell-based; details: for Cell activity: at LD50
Method: Test cells of human-derived fibroblast(ATCC, Hs68) were cultivated in DMEM medium added by 10% FBS at 37° C. in the condition of 5%CO2, 100% humidity. 1×10^5 cells/ml of cells were seeded in 96 plate and incubated at 37° C. for 24 hr. Samples sterilized by 0.2 µm filter were added according to the fixed concentration and further incubated at 37° C. for 24 hr. Then, MTT regent was added and incubated at 37° C. for 4 hr, then the culture solution was removed. After, 1N NaOH isopropane solution was added and stirred for 20 min, the absorbance at 565 nm was measured. Then, the cell apoptosis concentration was determined by comparing the untreated cell (survival ratio: 100%).
Cell activity at LD50 was 20%, which was satisfactory level.

[4] = 24 hr, diluted in 1,3-butylenglycol

Row | Molecule | Tyrosinase inhibition effect (%) (tyrosinase) | Anti-oxidant effect (%) [1] [%] | Cell activity [3] [%] | other results
1 | COc1cc(C=CC(=O)Oc2ccc3c(c2)oc(=O)c2c4ccc(OC(=O)C=Cc5ccc(O)c(OC)c5)cc4oc32)ccc1O [3,9-diferulylcoumestrol] | 76 | 42 | 20 | collagen synthesis and proliferation in skin ([2]; after 2 weeks (15 days), vs control groups): collagen synthesis and proliferation were found; collagen proliferation in corium layer and tissue density ([2]; after 30 days): collagen proliferation in corium layer was increased and the tissue density was raised; concentration range in which cell apoptosis did not show [3, 4]: ≤ 78 µM; concentration range in which cell apoptosis did not show (%) [3, 4]: ≤ 0.0048%
2 | OC[C@H]1O[C@@H](Oc2ccc(O)cc2)[C@H](O)[C@@H](O)[C@@H]1O [Albutin] | 40 | – | – | –
3 | O=C1O[C@H]([C@@H](O)CO)C(O)=C1O [Ascorbic acid] | 30 | – | – | –
4 | O=c1oc2cc(O)ccc2c2oc3cc(O)ccc3c12 [Coumestrol] | – | 28 | 20 | Evaluation (LD50) [3]: Safe; Evaluation (cell activity) [3]: excellent; LD50 % concentration ([3]; 24 hr): 0.0048%; LD50 mole concentration(mM) ([3]; 24 hr): 0.078 mM
5 | O=c1cc(CO)occ1O [Kojic acid] | 91 | – | – | –
6 | Tocopherol | – | 43 | – | –
